{"source": "paper PMC6573034", "about": "(Nature Communications, 2019)", "key": {"SfMCT [1]": {"biological_target": "T1, SfMCT (Syntrophobacter fumaroxidans, UniProt A0LNN5)", "T1 construct": "expressed in transfected cells; host or cells: E. coli JA202 (MC4100 glcA::cat lldP::kan), plasmid pEXT20-SfMCT-3C-10His", "T1 sequence (A0LNN5 1-412)": "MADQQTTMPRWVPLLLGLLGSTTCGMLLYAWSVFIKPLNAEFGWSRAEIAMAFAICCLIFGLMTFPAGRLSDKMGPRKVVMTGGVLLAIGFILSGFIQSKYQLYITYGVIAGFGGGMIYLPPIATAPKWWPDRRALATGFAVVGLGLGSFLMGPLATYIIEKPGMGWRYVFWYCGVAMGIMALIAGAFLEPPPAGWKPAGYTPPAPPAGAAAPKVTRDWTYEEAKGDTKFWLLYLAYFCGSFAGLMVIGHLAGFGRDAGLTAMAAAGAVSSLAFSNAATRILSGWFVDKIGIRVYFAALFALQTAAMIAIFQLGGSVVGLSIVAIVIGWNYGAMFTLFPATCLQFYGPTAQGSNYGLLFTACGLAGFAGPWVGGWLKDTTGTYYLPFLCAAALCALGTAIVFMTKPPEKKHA", "assay": "Uptake of [14C]L-lactate and other radiolabeled monocarboxylates into SfMCT expressing E. coli JA202", "assay_type": "cell-based", "description": "(§1) The cultures were grown at 37 °C and 180 r.p.m. in an incubator shaker (Multitron, Infors HT). Protein expression was induced at OD600 ~0.5 by addition of IPTG to a final concentration of 0.25 mM. After 4 h, bacteria were pelleted (5,200 × g, 10 min, room temperature) and resuspended in uptake buffer (20 mM Bis-Tris propane-HCl (pH 6.7), 250 mM KCl) to a bacteria density of OD600 12. […] Furthermore, [3-3 H] propionic acid sodium salt ([^3H]propionate, American Radiolabeled Chemicals, specific activity 30 Ci/mmol), n-[2,3-3 H] butyric acid sodium salt ([^3H]butyrate, American Radiolabeled Chemicals, specific activity 120 Ci/mmol), and [1–14 C] pyruvic acid sodium salt ([^14C]pyruvate, specific activity 0.055 Ci/mmol American Radiolabeled Chemicals) were also used for transport experiments. […] Uptake experiments were performed in 2 ml reaction tubes (Eppendorf) at 30 °C under agitation (1,000 r.p.m., Thermomixer compact, Eppendorf). […] Bacteria were immediately pelleted by centrifugation (21,000 × g, 4 min, room temperature) and washed two times with 900 μl stop buffer. Finally, bacteria were lyzed in 50 μl 5% (w/v) sodium dodecylsulfate and transferred into a white 96-well plate (Optiplate, PerkinElmer). 150 µl of scintillation cocktail (MicroScint 40, PerkinElmer) were added before measuring each reaction for 2 min with a scintillation counter (TopCount NXT, PerkinElmer). For data analysis, the signal of the empty vector was subtracted from the transporter signal. […] Cpm values of each experiment were normalized with respect to the determined upper plateau value, i.e., the fitted upper plateau value corresponds to 100%. The arithmetic average of three independent experiments was calculated. Three independent and normalized pH-dependence curves were then averaged. For data analysis Prism6 (GraphPad Software) was used. […] Equal amounts of bacteria expressing SfMCT variants were loaded on 14% SDS/polyacrylamide gels. His-tagged transporters were detected using an anti-His5 (Qiagen, catalogue number 34660, primary antibody) at a dilution of 1:3,000 and a goat anti-mouse IgG (H + L) HRP conjugate antibody (Biorad, catalogue number 172-1011, secondary antibody) at a dilution of 1:2,500."}, "SfMCT [2]": {"biological_target": "T1, SfMCT", "assay_type": "cell-based", "conditions": "competitor 1 mM", "description": "as §1"}, "SfMCT [3]": {"biological_target": "T1, SfMCT", "assay": "Uptake of [14C]L-lactate and other radiolabeled monocarboxylates into SfMCT expressing E. coli JA202", "assay_type": "cell-based", "conditions": "for Net uptake of [14C]L-lactate through SfMCT (cpm): SfMCT minus vector"}, "MCT2 (SLC16A7)": {"system": "MCT2 (SLC16A7)", "conditions": "MCT2, L-lactate; cited from earlier work"}}}
{"smiles": "C[C@H](O)C(=O)O", "note": "[L-lactate]", "values": [{"measurement": "Uptake of radioligand by SfMCT (cpm)", "setting": "SfMCT [1]; 0.1 µCi radiolabeled monocarboxylate, SfMCT-overexpressing bacteria", "value": 10963, "unit": "cpm"}, {"measurement": "Uptake of [14C]L-lactate by SfMCT (cpm)", "setting": "SfMCT [1]; Time 30 min", "value": 8927.33, "unit": "cpm"}, {"measurement": "Net uptake of [14C]L-lactate through SfMCT (cpm)", "setting": "SfMCT [1]; Time 30 min, SfMCT minus vector", "value": 7196.33, "unit": "cpm"}, {"measurement": "Uptake of [14C]L-lactate", "setting": "SfMCT [1]; [L-lactate] 500 µM", "value": 253.382, "unit": "pmol"}, {"measurement": "Uptake of [14C]L-lactate", "setting": "SfMCT [1]; [L-lactate] 750 µM", "value": 287.925, "unit": "pmol"}, {"measurement": "competition with [14C]L-lactate uptake (in words)", "setting": "SfMCT [2]", "value": "strongest competition"}, {"measurement": "Uptake of [14C]L-lactate by SfMCT (cpm)", "setting": "SfMCT [3]; Time 5 min", "value": 1353.33, "unit": "cpm"}, {"measurement": "Net uptake of [14C]L-lactate through SfMCT (cpm)", "setting": "SfMCT [3]; Time 5 min", "value": 969, "unit": "cpm"}, {"measurement": "Uptake of [14C]L-lactate by SfMCT (cpm)", "setting": "SfMCT [3]; Time 10 min", "value": 2978.67, "unit": "cpm"}, {"measurement": "Net uptake of [14C]L-lactate through SfMCT (cpm)", "setting": "SfMCT [3]; Time 10 min", "value": 2373.33, "unit": "cpm"}, {"measurement": "Uptake of [14C]L-lactate by SfMCT (cpm)", "setting": "SfMCT [3]; Time 20 min", "value": 6015, "unit": "cpm"}, {"measurement": "Net uptake of [14C]L-lactate through SfMCT (cpm)", "setting": "SfMCT [3]; Time 20 min", "value": 4812, "unit": "cpm"}, {"measurement": "Uptake of [14C]L-lactate by SfMCT (cpm)", "setting": "SfMCT [3]; Time 40 min", "value": 11074.3, "unit": "cpm"}, {"measurement": "Net uptake of [14C]L-lactate through SfMCT (cpm)", "setting": "SfMCT [3]; Time 40 min", "value": 8600.33, "unit": "cpm"}, {"measurement": "Uptake of [14C]L-lactate by SfMCT (cpm)", "setting": "SfMCT [3]; Time 50 min", "value": 12325, "unit": "cpm"}, {"measurement": "Net uptake of [14C]L-lactate through SfMCT (cpm)", "setting": "SfMCT [3]; Time 50 min", "value": 9196.33, "unit": "cpm"}, {"measurement": "Uptake of [14C]L-lactate by SfMCT (cpm)", "setting": "SfMCT [3]; Time 60 min", "value": 13920.3, "unit": "cpm"}, {"measurement": "Net uptake of [14C]L-lactate through SfMCT (cpm)", "setting": "SfMCT [3]; Time 60 min", "value": 9981.67, "unit": "cpm"}, {"measurement": "Uptake of [14C]L-lactate by SfMCT (cpm)", "setting": "SfMCT [3]; Time 75 min", "value": 16014.3, "unit": "cpm"}, {"measurement": "Net uptake of [14C]L-lactate through SfMCT (cpm)", "setting": "SfMCT [3]; Time 75 min", "value": 10856.3, "unit": "cpm"}, {"measurement": "Uptake of [14C]L-lactate by SfMCT (cpm)", "setting": "SfMCT [3]; Time 90 min", "value": 17840, "unit": "cpm"}, {"measurement": "Net uptake of [14C]L-lactate through SfMCT (cpm)", "setting": "SfMCT [3]; Time 90 min", "value": 10528.3, "unit": "cpm"}, {"measurement": "Uptake of [14C]L-lactate", "setting": "SfMCT [3]; [L-lactate] 10 µM", "value": 8.303, "unit": "pmol"}, {"measurement": "Uptake of [14C]L-lactate", "setting": "SfMCT [3]; [L-lactate] 50 µM", "value": 59.1431, "unit": "pmol"}, {"measurement": "Uptake of [14C]L-lactate", "setting": "SfMCT [3]; [L-lactate] 100 µM", "value": 109.881, "unit": "pmol"}, {"measurement": "Uptake of [14C]L-lactate", "setting": "SfMCT [3]; [L-lactate] 175 µM", "value": 163.284, "unit": "pmol"}, {"measurement": "Uptake of [14C]L-lactate", "setting": "SfMCT [3]; [L-lactate] 250 µM", "value": 201.312, "unit": "pmol"}, {"measurement": "Uptake of [14C]L-lactate", "setting": "SfMCT [3]; [L-lactate] 625 µM", "value": 266.195, "unit": "pmol"}, {"measurement": "Km", "setting": "MCT2 (SLC16A7)", "value": "~700", "unit": "µM"}]}
